From ChEMBL document CHEMBL1141434, “Chlorocyclinones A-D, chlorinated angucyclinones from Streptomyces sp. strongly antagonizing rosiglitazone-induced PPAR-gamma activation” (J Nat Prod, 2007) come the findings set out here.

Assay [1] deals with T1, Peroxisome proliferator-activated receptor gamma (Homo sapiens, UniProt P37231).
T1 sequence (P37231 whole entry): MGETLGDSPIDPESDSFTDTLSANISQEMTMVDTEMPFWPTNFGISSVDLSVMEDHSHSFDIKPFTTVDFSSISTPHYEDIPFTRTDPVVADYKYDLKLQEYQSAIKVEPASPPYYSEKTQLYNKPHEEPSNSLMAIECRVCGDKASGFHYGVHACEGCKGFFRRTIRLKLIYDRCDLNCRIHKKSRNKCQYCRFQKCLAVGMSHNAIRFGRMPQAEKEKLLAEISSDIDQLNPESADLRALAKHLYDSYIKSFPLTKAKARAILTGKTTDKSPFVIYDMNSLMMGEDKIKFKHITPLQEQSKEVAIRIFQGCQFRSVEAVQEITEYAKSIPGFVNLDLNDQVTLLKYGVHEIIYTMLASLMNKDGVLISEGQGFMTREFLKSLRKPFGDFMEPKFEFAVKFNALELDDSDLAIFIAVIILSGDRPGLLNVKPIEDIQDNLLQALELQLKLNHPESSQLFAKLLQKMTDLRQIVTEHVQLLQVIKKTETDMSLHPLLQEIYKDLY
Briefly: Antagonist activity at human PPARgamma receptor in CHO-K1 cells assessed as rosiglitazone-induced receptor activation by cell based reporter assay. In kind it is functional. In general terms: In a reporter assay the amount or activity of a reporter protein is the signal.

In assay [2] the target is T1, Peroxisome proliferator-activated receptor gamma. Briefly: Displacement of [3H]rosiglitazone from human PPARgamma receptor by scintillation proximity assay. A general note: In a radioligand displacement assay an active substance lowers the binding of a labelled ligand.
Assay [3] has the same target. Briefly: Antagonist activity at human PPARgamma receptor assessed as rosiglitazone-induced receptor activation by alphascreen assay. The format is functional. (In general: In Alpha technology, singlet oxygen from a donor bead excites a nearby acceptor bead.)

On to `CCc1c(C(=O)OC)cc2c(c1O)C(=O)c1c(O)cc3cc(C)c(Cl)c(OC)c3c1C2=O` [CHLOROCYCLINONE A], for which the half-inhibitory concentration (IC50) (usually the point on the concentration scale where inhibition reaches its midpoint) in assay [1] is 7 µM; in assay [3], 0.16 µM. Also, the EC50 (as a rule, the concentration at which the effect is half-maximal) in assay [2] came to 0.18 µM.
Taken in the same sequence, the figures for `COC(=O)c1cc2c(c(O)c1C(C)OC(C)=O)C(=O)c1c(O)cc3cc(C)c(Cl)c(OC)c3c1C2=O` (configuration not stated) [CHLOROCYCLINONE B] were 1.4 µM, 0.1 µM and 0.16 µM.
Taken in the same sequence, the figures for `COC(=O)c1cc2c(c(O)c1C(C)OC(=O)CO)C(=O)c1c(O)cc3cc(C)c(Cl)c(OC)c3c1C2=O` (configuration not stated) [CHLOROCYCLINONE C] were 0.6 µM, 0.09 µM and 0.13 µM.
Turning to `COc1c(Cl)c(C)cc2cc(O)c3c(c12)C(=O)c1cc2c(c(O)c1C3=O)C(C)OC2=O` (configuration not stated) [CHLOROCYCLINONE D], the half-maximal inhibitory concentration (IC50) in assay [1] is 4.4 µM; in assay [3], 0.32 µM. For the same molecule, in assay [2], the concentration giving a half-maximal response (EC50) came to 0.26 µM.
